Where two headings read alike, the source gives them in different places. Where a SMILES comes first, the peptide text is derived from it. Bridges are numbered along the chain shown (N, C = ends). [ ]: non-standard residue; d: D form. Cit = NC(=O)NCCC[C@H](N)C(=O)O; Orn = NCCC[C@H](N)C(=O)O; Mpa = O=C(O)CCS
Experiments:
[1] = Pressor effect (effect on the blood pressure); design: reference not given here
[2] = tested on: rat uterus in vivo; assay: In vivo inhibition of oxytocin-induced uterus contractions in rats, compared with Antocin; conditions: anaesthetized rats, oxytocin infusion i.v., antagonist 0.8-8.0 μg/100 g i.v.; Antocin given the value 1
Protocol: Sprague Dawley rats (250 g) in natural estrous were anaesthetized with Inactin (0.5 mg/100 g body weight i.p.). Myometrial activity was recorded by means of a catheter fixed in the uterine cavity and filled with modified Locke's solution. The catheter was connected to a Statham P23d transducer, and contractions were recorded on a Grass polygraph (model 7d). Oxytocin was infused intravenously (0.05 μg/min/100 g body weight). When a regular contraction pattern had been obtained, the antagonist (0.8-8.0 μg/100 g body weight) was administered intravenously in a volume of 0.2 ml. The recorded curve was integrated over 15 min intervals immediately before and after injection of the antagonist. The inhibition of the increase in the magnitude of the uterus contractions caused by oxytocin infusion were compared with the inhibition of the Antocin which was given the value 1.

[3] = tested on: isolated rat uterus; assay type: cell-based
Protocol: The compounds according to the invention were investigated with regard to uterotonic potency on isolated rat uterus, using oxytocin as standard. The antagonistic properties of the compounds were also evaluated with the aid of this preparation. Also in vivo tests using oxytocin as the agonist were carried out, the results being compared with those obtained with Antocin.
Sprague Dawley rats (body weight approximately 250 g) in natural estrous were selected by vaginal smears. An approximately 20 mm long segment was cut from the middle of a uterine horn and mounted in an organ bath containing 10 ml of a modified Locke's solution of the following composition (mM:NaCl 153, KCl 5.63, CaCl2 0.541, NaHCO3 5.95 and glucose 2.78). The solution was gassed with 5% CO2 in oxygen at 30° C. The uterine contractions were allowed to stabilize for 30 min. Contractions were recorded isometrically at a resting tension of 1.5 g using Grass force transducers (Ft. 03). The antagonistic potency of the analogs was calculated as pA2 values (Rudinger, J. & Krejci, I. Experientia 18, (1962), 585-588). pA2 is a measure of the inhibitory effect of the peptide and was defined by Schild (Schild, H. O., British Journal of Pharmacology, 2, (1947), 189-206) as the negative logarithm of the molar concentration of an antagonist which reduces the effect of a dose of agonist to that of half the dose. The agonistic effects, if any, of the antagonists were investigated by adding to the bath containing the uterus preparation a varying amount of peptide corresponding at most to a concentration of 4 μg per ml.

[4] = Antidiuretic effect (AD); design: unit not given here
[5] = isolated rat uterus, oxytocin as agonist, 30° C.

Compound: 1-β-mercaptopropionic acid-2-(4-ethoxy)-D-phenyl alanine-8-arginine vasotocin [Example 7]
- Pressor (effect on the blood pressure) [1]: 2.5
- Uterus in vivo, compared with Antocin [2]: 2
- Uterus in vitro antagonist pA2 [3, 5]: 8.4
- AD (antidiuretic effect) [4]: 37.9

Compound: CCOc1ccc(C[C@H]2NC(=O)CCSSC[C@@H](C(=O)N3CCC[C@H]3C(=O)N[C@@H](CCCN)C(=O)NCC(N)=O)NC(=O)[C@H](CC(N)=O)NC(=O)[C@H]([C@@H](C)O)NC(=O)[C@H]([C@@H](C)CC)NC2=O)cc1 [Antocin, 1-desamino-(2-0-ethyltyrosine)-oxytocin, reference compound] ([Mpa][dY](Et)ITNCP[Orn]G-NH2; disulfide 1-6)
- Pressor (effect on the blood pressure) [1]: < 0.1
- Uterus in vivo, compared with Antocin [2]: 1
- Type of inhibition of the oxytocin effect [3]: competitive inhibition
- Uterus in vitro antagonist pA2 [3, 5]: 7.2
- AD (antidiuretic effect) [4]: < 0.2

Compound: CCOc1ccc(C[C@@H]2NC(=O)CCSSC[C@@H](C(=O)N3CCC[C@H]3C(=O)N[C@@H](CCCN)C(=O)NCC(N)=O)NC(=O)[C@H](CC(N)=O)NC(=O)[C@H](CCC(N)=O)NC(=O)[C@H]([C@@H](C)CC)NC2=O)cc1 [Example 1, 1-β-mercaptopropionic acid-2-(4-ethoxy)-phenyl alanine-8-ornithine-vasotocin] ([Mpa]Y(Et)IQNCP[Orn]G-NH2; disulfide 1-6)
- Uterus in vitro antagonist pA2 [3]: 8.4

Compound: CCOc1ccc(C[C@H]2NC(=O)CCSSC[C@@H](C(=O)N3CCC[C@H]3C(=O)N[C@@H](CCCNC(=N)N)C(=O)NCC(N)=O)NC(=O)[C@H](CC(N)=O)NC(=O)[C@H](CCC(N)=O)NC(=O)[C@H]([C@@H](C)CC)NC2=O)cc1 [Example 2, 1-β-mercaptopropionic acid-2-(4-ethoxy)-D-phenyl alanine-8-arginine vasotocin] ([Mpa][dY](Et)IQNCPRG-NH2; disulfide 1-6)
- Uterus in vitro antagonist pA2 [3, 5]: 8.7

Compound: CCOc1ccc(C[C@@H]2NC(=O)CCSSC[C@@H](C(=O)N3CCC[C@H]3C(=O)N[C@@H](CCCNC(N)=O)C(=O)NCC(N)=O)NC(=O)[C@H](CC(N)=O)NC(=O)[C@H](CCC(N)=O)NC(=O)[C@H]([C@@H](C)CC)NC2=O)cc1 [Example 3, 1-β-mercaptopropionic acid-2-(4-ethoxy)-phenyl alanine-8-citrullin vasotocin] ([Mpa]Y(Et)IQNCP[Cit]G-NH2; disulfide 1-6)
- Uterus in vitro antagonist pA2 [3]: 8.5

Compound: CCOc1ccc(C[C@@H]2NC(=O)CCSSC[C@@H](C(=O)N3CCC[C@H]3C(=O)N[C@@H](CCCNC(=N)N)C(=O)NCC(N)=O)NC(=O)[C@H](CC(N)=O)NC(=O)[C@H](C(C)C)NC(=O)[C@H]([C@@H](C)CC)NC2=O)cc1 [Example 4, 1-β-mercaptopropionic acid-2-(4-ethoxy)-phenyl alanine-4-valine-8-arginine vasotocin] ([Mpa]Y(Et)IVNCPRG-NH2; disulfide 1-6)
- Uterus in vitro antagonist pA2 [3]: 8.5

Compound: CCOc1ccc(C[C@@H]2NC(=O)CCSSC[C@@H](C(=O)N3CCC[C@H]3C(=O)N[C@@H](CCCNC(=N)N)C(=O)NCC(N)=O)NC(=O)[C@H](CC(N)=O)NC(=O)[C@H]([C@@H](C)O)NC(=O)[C@H]([C@@H](C)CC)NC2=O)cc1 [Example 5, 1-β-mercaptopropionic acid-2-(4-ethoxy)-phenyl alanine-4-treonine-8-arginine vasotocin] ([Mpa]Y(Et)ITNCPRG-NH2; disulfide 1-6)
- Uterus in vitro antagonist pA2 [3, 5]: 8.0

Compound: CCOc1ccc(C[C@@H]2NC(=O)CCSSC[C@@H](C(=O)N3CCC[C@H]3C(=O)N[C@@H](CCCN)C(=O)NCC(N)=O)NC(=O)[C@H](CC(N)=O)NC(=O)[C@H](C(C)C)NC(=O)[C@H]([C@@H](C)CC)NC2=O)cc1 [Example 6, 1-β-mercaptopropionic acid-2-(4-ethoxy)-phenyl alanine-4-valine-8-ornithine vasotocin] ([Mpa]Y(Et)IVNCP[Orn]G-NH2; disulfide 1-6)
- Uterus in vitro antagonist pA2 [3]: 7.6

Compound: CC[C@H](C)[C@@H]1NC(=O)[C@@H](Cc2c[nH]c3ccccc23)NC(=O)CCSSC[C@@H](C(=O)N2CCC[C@H]2C(=O)N[C@@H](CCCNC(=N)N)C(=O)NCC(N)=O)NC(=O)[C@H](CC(N)=O)NC(=O)[C@H](C(C)C)NC1=O [Example 8, 1-β-mercaptopropionic acid-2-D-tryptophane-4-valine-8-arginine vasotocin] ([Mpa][dW]IVNCPRG-NH2; disulfide 1-6)
- Pressor (effect on the blood pressure) [1]: 0.12
- Uterus in vivo, compared with Antocin [2]: 11
- Uterus in vitro antagonist pA2 [3]: 8.4
- AD (antidiuretic effect) [4]: 0.1

Compound: CCOc1ccc(C[C@H]2NC(=O)CCSSC[C@@H](C(=O)N3CCC[C@H]3C(=O)N[C@H](CCCNC(=N)N)C(=O)NCC(N)=O)NC(=O)[C@H](CC(N)=O)NC(=O)[C@H](C(C)C)NC(=O)[C@H]([C@@H](C)CC)NC2=O)cc1 [Example 9, 1-β-mercaptopropionic acid-2-(4-ethoxy)-D-phenyl alanine-4-valine-8-D-arginine vasotocin] ([Mpa][dY](Et)IVNCP[dR]G-NH2; disulfide 1-6)
- Uterus in vitro antagonist pA2 [3]: 8.6

Compound: CCOc1ccc(C[C@H]2NC(=O)CCSSC[C@@H](C(=O)N3CCC[C@H]3C(=O)N[C@@H](CCCN)C(=O)NCC(N)=O)NC(=O)[C@H](CC(N)=O)NC(=O)[C@H](C(C)C)NC(=O)[C@H]([C@@H](C)CC)NC2=O)cc1 [Example 10, 1-β-mercaptopropionic acid-2-(4-ethoxy)-D-phenyl alanine-4-valine-8-ornithine vasotocin] ([Mpa][dY](Et)IVNCP[Orn]G-NH2; disulfide 1-6)
- Uterus in vitro antagonist pA2 [3]: 7.9

Compound: CCOc1ccc(C[C@H]2NC(=O)CCSSC[C@@H](C(=O)N3CCC[C@H]3C(=O)N[C@@H](CCCN)C(=O)NCC(N)=O)NC(=O)[C@H](CC(N)=O)NC(=O)[C@H]([C@@H](C)O)NC(=O)[C@H]([C@@H](C)CC)NC2=O)cc1 [Example 11, 1-β-mercaptopropionic acid-2-(4-ethoxy)-D-phenyl alanine-4-treonine-8-ornithine vasotocin] ([Mpa][dY](Et)ITNCP[Orn]G-NH2; disulfide 1-6)
- Uterus in vitro antagonist pA2 [3, 5]: 8.3

Compound: CC[C@H](C)[C@@H]1NC(=O)[C@@H](Cc2c[nH]c3ccccc23)NC(=O)CCSSC[C@@H](C(=O)N2CCC[C@H]2C(=O)N[C@H](CCCNC(=N)N)C(=O)NCC(N)=O)NC(=O)[C@H](CC(N)=O)NC(=O)[C@H]([C@@H](C)O)NC1=O [Example 12, 1-β-mercaptopropionic acid-2-D-tryptophane-4-treonine-8-D-arginine vasotocin] ([Mpa][dW]ITNCP[dR]G-NH2; disulfide 1-6)
- Pressor (effect on the blood pressure) [1]: 0.12
- Uterus in vivo, compared with Antocin [2]: 6.3
- Uterus in vitro antagonist pA2 [3, 5]: 8.0
- AD (antidiuretic effect) [4]: 0.1

Compound: CC[C@H](C)[C@@H]1NC(=O)[C@@H](Cc2ccc(O)cc2)NC(=O)CCSSC[C@@H](C(=O)N2CCC[C@H]2C(=O)N[C@@H](CCCN)C(=O)NCC(N)=O)NC(=O)[C@H](CC(N)=O)NC(=O)[C@H](C(C)C)NC1=O [Example 13, 1-β-mercaptopropionic acid-2-D-tyrosine-4-valine-8-ornithine vasotocin] ([Mpa][dY]IVNCP[Orn]G-NH2; disulfide 1-6)
- Pressor (effect on the blood pressure) [1]: 0.6
- Uterus in vivo, compared with Antocin [2]: 4.4
- Uterus in vitro antagonist pA2 [3]: 8.2
- AD (antidiuretic effect) [4]: 1.2

Compound: CC[C@H](C)[C@@H]1NC(=O)[C@@H](Cc2c[nH]c3ccccc23)NC(=O)CCSSC[C@@H](C(=O)N2CCC[C@H]2C(=O)N[C@@H](CCCN)C(=O)NCC(N)=O)NC(=O)[C@H](CC(N)=O)NC(=O)[C@H](C(C)C)NC1=O [Example 14, 1-β-mercaptopropionic acid-2-D-tryptophane-4-valine-8-ornithine vasotocin] ([Mpa][dW]IVNCP[Orn]G-NH2; disulfide 1-6)
- Pressor (effect on the blood pressure) [1]: 0.03
- Uterus in vivo, compared with Antocin [2]: 17.9
- Uterus in vitro antagonist pA2 [3]: 7.9
- AD (antidiuretic effect) [4]: 0.03

Compound: CC[C@H](C)[C@@H]1NC(=O)[C@@H](Cc2c[nH]c3ccccc23)NC(=O)CCSSC[C@@H](C(=O)N2CCC[C@H]2C(=O)N[C@@H](CCCN)C(=O)NCC(N)=O)NC(=O)[C@H](CC(N)=O)NC(=O)[C@H]([C@@H](C)O)NC1=O [Example 15, 1-β-mercaptopropionic acid-2-D-tryptophane-4-treonine-8-ornithine vasotocin] ([Mpa][dW]ITNCP[Orn]G-NH2; disulfide 1-6)
- Pressor (effect on the blood pressure) [1]: 0.05
- Uterus in vivo, compared with Antocin [2]: 7.8
- Uterus in vitro antagonist pA2 [3]: 8.5
- AD (antidiuretic effect) [4]: 0.1

Reference: US4504469A, “Vasotocin derivatives” (priority 1982, dated 1985)
